According to article PMC9331544, “Molecular Physicochemical Properties of Selected Pesticides as Predictive Factors for Oxidative Stress and Apoptosis-Dependent Cell Death in Caco-2 and HepG2 Cells” (International Journal of Molecular Sciences, 2022):
Like-named read-outs stand apart in the source and are kept apart here.

What was measured:
[1] = Alamar Blue cell viability/cytotoxicity assay; assay type: cell-based, human; conditions: human, mean ± SD (n = 4), read-out: IC50 of pesticide-induced cytotoxicity
Description: (§1) In this study, to assess the cytotoxic activity of GLY, IMD, and IMZ, human epithelial colorectal adenocarcinoma (Caco-2), cell lines service (CLS), (Eppelheim, Germany) and human hepatocellular carcinoma (HepG2) (ATCC, Rockville, Maryland, USA) cells were used. Cells were cultured in complete culture media (Dulbecco’s Modified Eagle Media (DMEM), supplemented with 1 mM L-glutamine, 10% (v/v) foetal bovine serum (FBS), and antibiotics (penicillin at 100 U/mL, and streptomycin at 100 μg/mL)) and maintained at 5% CO2/95% air; 37 °C, controlled humidity, in an incubator. Cells were grown in T25 culture flasks to near confluence. Then, these adherent cells were treated with trypsin (trypsin-EDTA), for detachment and subculture, which was stopped using complete culture medium (1:1, trypsin:culture media) as soon as cells were detached (about 6 and 8 minutes of trypsin treatment for HepG2 and Caco-2 cells, respectively). Detached cells were gently re-suspended with a Pasteur pipette and then a sample was counted using an automated cell counter (TC10™, BIORAD, Portugal). A suspension of cells in fresh culture media, at 5 × 10^4 cells/mL was prepared to seed into 96-well microplates (100 µL/well). After seeding, cells were placed in the incubator for 48 h (to adhere and stabilize) before being used, for other details see [66, 67].
(§2) Cell viability was assessed using the Alamar Blue® (AB) assay, after exposure to the pesticides. In summary, cells seeded into 96-well microplates were subjected to various concentrations of the pesticides (GLY: 0–1 mM; IMD: 0–1 mM; IMZ: 0–0.3 mM). To prepare the test solutions, the appropriate volume of the pesticide stock solution was diluted in FBS-free culture media just before its application to the cells. Stock solution of GLY was prepared in water (at 40 mM), and stock solutions of IMD and IMZ were prepared in DMSO (at 20 mM). After 24 h or 48 h of exposure, the test solutions were removed and the Alamar Blue solution (100 µL/well; 10% (v/v) in FBS-free medium) was immediately added to the cells, followed by a further 5 h incubation. The absorbance was then read at 570 and 620 nm using a microplate reader (Multiskan EX; MTX Lab Systems, Inc., Bradenton, FL, USA) and the percentage of the AB reduction was calculated according to the manufacturer’s instructions, as described before. Cell viability, at each condition, was calculated and expressed as percentage of control cells (non-exposed cells).
(§3) The concentrations needed to reduce cell viability by 50% (IC50) were calculated from three independent experiments (each one performed in quadruplicates), as described.

HepG2 cells = assay: Alamar Blue cell viability/cytotoxicity assay; assay type: cell-based, human; conditions: HepG2
Description: as §1, §2, §3

Caco-2 cells [2] = assay: Alamar Blue cell viability/cytotoxicity assay; assay type: cell-based, human
Description: as §1, §2, §3

Caco-2 cells [3] = tested on: Caco-2 cells; parameters: method as in doi:10.1016/j.envpol.2020.114660; conditions: Caco-2, 30 µg/mL (~100 µM), fluorescence microscopy; ref [34]; cited from earlier work

C=CCOC(Cn1ccnc1)c1ccc(Cl)cc1Cl (stereo not shown) [Imazalil, imazalil]
IC50 at 24 h ([1]; Caco-2 cells, Caco-2, 24 h exposure): 254 ± 3.37 µM | IC50 at 48 h ([1]; Caco-2 cells, Caco-2, 48 h exposure): 187 ± 2 µM | IC50 at 24 h ([1]; HepG2 cells, HepG2, 24 h exposure): 94 ± 12 µM | IC50 at 48 h ([1]; HepG2 cells, HepG2, 48 h exposure): 47 ± 3 µM | decrease in IC50 when doubling the exposure time (24 h to 48 h) (HepG2 cells): 2 fold | IC50 for Caco-2 cells relative to HepG2 cells (Caco-2 cells [2]; 24 h exposure): 2.7 fold | IC50 for Caco-2 cells relative to HepG2 cells (Caco-2 cells [2]; 48 h exposure): 4 fold | IC50 at 24 h relative to IC50 at 48 h (Caco-2 cells [2]; Caco-2): 1.35 fold | IC50 (Caco-2 cells [2]; Caco-2, 24 h exposure, mean ± SD (n = 4), read-out: IC50 of pesticide-induced cytotoxicity): 254 ± 3 µM | ROS content (in words) (Caco-2 cells [3]): increase in ROS content
